Values after ≈ are worked out from the molar mass of the structure shown.
Key:
[1] = test system: human squamous lung cancer Ma44; test: In vitro cell growth inhibition test, MTT assay; format: cell-based; conditions: MTT assay 4 days after compound addition
Text: (§1) Test Example 2 In Vitro Cell Growth Inhibition Test Cells and MTT Assay
(§2) Human squamous lung cancer […], human squamous lung cancer Ma44, human lung adenocarcinoma A549, human colon cancer HT29 and human pancreas cancer PANC-1 were used.

[2] = test system: human pancreas cancer PANC-1; test: In vitro cell growth inhibition test, MTT assay; format: cell-based; conditions: MTT assay 4 days after compound addition
Text: as §1, §2

[3] = test system: human squamous lung cancer RERF-RC-AI; test: In vitro cell growth inhibition test, MTT assay; format: cell-based; conditions: MTT assay 4 days after compound addition
Text: as §1, §2

[4] = test system: DT-R cells (pRRE3-luc-transfected v-ki-ras-transformed NIH3T3 cells); signal derived from Ras oncogene products; test: Inhibitory effect against cellular signaling derived from Ras oncogene products: luciferase reporter, dissociation of DT-R from DT-C activity (MAC); format: cell-based, mouse; conditions: minimal tested concentration at which luciferase activities of DT-C cells and DT-R cells dissociated
Text: Test Example 1 Inhibitory Effect Against Cellular Signaling Derived From Ras Oncogene Products
1) Establishment of Cell Lines Used in Assay
Based on the reporter plasmid (pGV-P (Toyo Ink, Japan)), in which luciferase gene was ligated to SV40-derived minimal promoter, we constructed a plasmid designated pRRE3-luc by inserting 3 copies of chemically synthesized oligonucleotides (Sequence: CAGGATATGACTCT, derived from mouse NVL-3 (M. A. Reddy et al.(1992)Mol. Endocrinol., 6, 1051)) into upstream of the promoter. v-ki-ras-transformed NIH3T3 cells (DT cells, provided by Dr. Makoto Noda (Kyoto Univ., School of medicine)) were transfected with this plasmid by liposome-mediated transfection and transfected cell lines stably incorporated and maintained each plasmid were obtained. We named pGV-P and pRRE3-transfected cell line as DT-C and DT-R, respectively and used in the assay described below.
2) Preparation of Samples
i) All the cell lines were cultured in Dulbecco's Modified Essential Medium (DMEM: 10% Fetal Calf Serum(FCS: Hyclone, USA)) including […] kanamycin (Meiji Seika, Japan) in humidified incubator under condition of 5% CO2 at 37° C.
ii) DT-C and DT-R cells were seeded at 2500 cells/well into flat-bottom 96 well multiplate (Sumitomo bakelite) and incubated for 24 hours.
iii) Test compounds were prepared as 1 mg/ml DMSO solution.
iv) The solution of test compounds were added to the culture. Tested compounds are used at the concentration from […] to 0.51 ng/ml with by 3-fold dilution.
v) After 24 hours, the culture supernatant was completely aspirated and […] of cell-lysing solution (PGC-50 (Toyo Ink, Japan)) was added before cells were dried up. In order to the cells were lysed completely, multiwell plates were left at room temperature for 10 to 30 min. The plates were wrapped up and stored at −20° C. till the day of measurement.
3) Measurement of Samples
i) Melt the samples by putting 96 well multiplate at 37° C. and add 90 μl/well 25 mM Tris (pH 7.5).
ii) Transfer 50 μl of the sample (110 μl) to the 96 well microplate for measurement (Microlite 1 (Dynatech)).
iii) Measure the samples by the luminometer, LUMINOUS CT9000D (Dia-Yatron, Japan). We used Pickagene luminescence kit PGL2000 or LT2.0 (Toyo Ink, Japan) as substrates for luminescence measurement (50 μl/well).
4) Judgment of the Results
i) The luciferase activity of DT-C cells and DT-R cells were plotted in the graph where the relative activity and the compound concentration were expressed as Y-axis and X-axis, respectively. We judged by the degree of dissociation between the activities of DT-C cells and DT-R cells as an index.
ii) Concretely, efficacy of the compound was expressed by two values described below.
a) Among the points of concentration tested, the minimal concentration (Minimal Active Concentration: MAC), at which the activities of DT-C cells and DT-R cells dissociated, was shown as an index of efficacy of the compound.

human colon cancer HT29 = test: In vitro cell growth inhibition test, MTT assay; format: cell-based; conditions: MTT assay 4 days after compound addition
Text: as §1, §2

[5] = test system: human lung adenocarcinoma A549; test: In vitro cell growth inhibition test, MTT assay; format: cell-based; conditions: MTT assay 4 days after compound addition
Text: as §1, §2

| SMILES | IC50, Ma44 [1] | IC50, PANC-1 [2] | IC50, RERF-LC-AI [3] | IC50, HT29 (human colon cancer HT29) | IC50, A549 [5] | MAC (Minimal Active Concentration) [4] |
| --- | --- | --- | --- | --- | --- | --- |
| CCNC(=Nc1nc(C)ncc1CSc1nnc(-c2ccc(OCC)cc2)o1)NCC [Compound A-101] | 0.21 µg/mL (≈ 0.476 µM) | 0.077 µg/mL (≈ 0.174 µM) | – | 0.052 µg/mL (≈ 0.118 µM) | 0.79 µg/mL (≈ 1.79 µM) | – |
| CCNC(=Nc1ncncc1CSc1nnc(-c2ccc([N+](=O)[O-])cc2Cl)o1)NCC [Compound A-126] | 0.17 µg/mL (≈ 0.367 µM) | – | 0.012 µg/mL (≈ 0.0259 µM) | 0.014 µg/mL (≈ 0.0302 µM) | 0.028 µg/mL (≈ 0.0605 µM) | 0.0137 µg/mL |
| CCCNC(=Nc1nc(C)ncc1CSc1nnc(-c2ccc(N)cc2OC)o1)NCCC [Compound A-156] | 0.072 µg/mL (≈ 0.153 µM) | 0.025 µg/mL (≈ 0.0531 µM) | 0.016 µg/mL (≈ 0.034 µM) | 0.023 µg/mL (≈ 0.0489 µM) | – | – |
| CNC(=Nc1nc(C)ncc1CSc1nnc(-c2ccc([N+](=O)[O-])cc2)o1)NC.Cl [Compound A-159] | – | – | – | – | – | 0.0412 µg/mL |
| CCNC(=Nc1ncncc1CSc1nnc(-c2ccc([N+](=O)[O-])cc2)o1)N(C)C [Compound A-190] | – | – | – | – | – | 0.0412 µg/mL |
| CCNC(=Nc1nc(C)ncc1COc1nnc(-c2ccccc2N)o1)NC [Compound B-2] | – | – | – | – | – | 0.370 µg/mL |
| CCNC(=Nc1ncncc1CSc1nnc(-c2cnc(C)cn2)o1)NCC [Compound D-32] | 3.1 µg/mL (≈ 7.76 µM) | – | 0.013 µg/mL (≈ 0.0325 µM) | 0.013 µg/mL (≈ 0.0325 µM) | 3.5 µg/mL (≈ 8.76 µM) | – |
| CCNC(=Nc1ncncc1CSc1nnc(-c2ccc(-n3cccc3)nc2)o1)NCC [Compound D-35] | 1.5 µg/mL (≈ 3.34 µM) | – | 2.5 µg/mL (≈ 5.56 µM) | 0.025 µg/mL (≈ 0.0556 µM) | 4.6 µg/mL (≈ 10.2 µM) | – |

Now from value to compound, other results behind:

| IC50, Ma44 [1] | IC50, PANC-1 [2] | IC50, RERF-LC-AI [3] | IC50, HT29 (human colon cancer HT29) | IC50, A549 [5] | SMILES | MAC (Minimal Active Concentration) [4] |
| --- | --- | --- | --- | --- | --- | --- |
| 0.024 µg/mL (≈ 0.0556 µM) | 0.017 µg/mL (≈ 0.0394 µM) | 0.0078 µg/mL (≈ 0.0181 µM) | – | – | CCNC(=Nc1nc(C)ncc1CSc1nnc(-c2ccc(Cl)cc2)o1)NCC [Compound A-62] | 0.0412 µg/mL |
| 1.8 µg/mL (≈ 4.36 µM) | 0.17 µg/mL (≈ 0.412 µM) | 0.05 µg/mL (≈ 0.121 µM) | 0.067 µg/mL (≈ 0.162 µM) | 0.036 µg/mL (≈ 0.0873 µM) | CCNC(=Nc1ncncc1CSc1nnc(-c2ccc(NC)cc2)o1)NCC [Compound A-66] | – |
| 6.1 µg/mL (≈ 14.3 µM) | 0.34 µg/mL (≈ 0.797 µM) | 0.053 µg/mL (≈ 0.124 µM) | 0.083 µg/mL (≈ 0.195 µM) | 0.083 µg/mL (≈ 0.195 µM) | CCNC(=Nc1ncncc1CSc1nnc(-c2ccc(N(C)C)cc2)o1)NCC [Compound A-67] | – |
| 0.091 µg/mL (≈ 0.174 µM) | 0.086 µg/mL (≈ 0.164 µM) | – | 0.064 µg/mL (≈ 0.122 µM) | 0.11 µg/mL (≈ 0.21 µM) | CCNC(=Nc1nc(C)ncc1CSc1nnc(-c2ccc(I)cc2)o1)NCC [Compound A-105] | – |
| 0.4 µg/mL (≈ 0.817 µM) | – | 0.017 µg/mL (≈ 0.0347 µM) | 0.035 µg/mL (≈ 0.0715 µM) | 0.097 µg/mL (≈ 0.198 µM) | C=C(Br)CNC(=Nc1ncncc1CSc1nnc(-c2ccc(N)cc2)o1)NCC [Compound A-111] | 0.123 µg/mL |
| 1.2 µg/mL (≈ 2.9 µM) | – | 0.027 µg/mL (≈ 0.0651 µM) | 0.076 µg/mL (≈ 0.183 µM) | 0.62 µg/mL (≈ 1.5 µM) | CCNC(=Nc1ncncc1CSc1nnc(-c2ccc(N)cc2)o1)NCCO [Compound A-113] | – |
| 0.83 µg/mL (≈ 2.02 µM) | – | 0.029 µg/mL (≈ 0.0705 µM) | 0.045 µg/mL (≈ 0.109 µM) | 0.32 µg/mL (≈ 0.778 µM) | CCNC(=Nc1ncncc1CSc1nnc(-c2ccc(CC)cc2)o1)NCC [Compound A-114] | 1.11 µg/mL |
| 5.8 µg/mL (≈ 13.6 µM) | – | 0.43 µg/mL (≈ 1.01 µM) | 0.065 µg/mL (≈ 0.153 µM) | 4.6 µg/mL (≈ 10.8 µM) | CCNC(=Nc1ncncc1CSc1nnc(-c2ccc(C(C)C)cc2)o1)NCC [Compound A-115] | – |
| 4.2 µg/mL (≈ 9.87 µM) | – | 0.62 µg/mL (≈ 1.46 µM) | 0.072 µg/mL (≈ 0.169 µM) | 3.8 µg/mL (≈ 8.93 µM) | CCCc1ccc(-c2nnc(SCc3cncnc3N=C(NCC)NCC)o2)cc1 [Compound A-116] | – |
| 8.6 µg/mL (≈ 20.2 µM) | – | 0.16 µg/mL (≈ 0.376 µM) | 0.017 µg/mL (≈ 0.04 µM) | 1.1 µg/mL (≈ 2.59 µM) | CCNC(=Nc1ncncc1CSc1nnc(-c2ccc(C(C)=O)cc2)o1)NCC [Compound A-117] | – |

Source: patent publication US6420367B1, “Pyrimidine derivatives exhibiting antitumor activity” (Shionogo & Co., Ltd., priority 1998, dated 2002)
